Data reported in patent US20200339511A1, “Substituted indoline derivatives as dengue viral replication inhibitors” (priority 2016, published 2020).

Columns and labels:
DENV-2 16681 strain = assay: DENV-2 antiviral assay (eGFP-labeled virus in Vero cells); assay type: cell-based, Dengue virus; conditions: DENV-2 16681 eGFP, MOI 0.5, 3 days
Method: The antiviral activity of all the compounds of the invention was tested the against DENV-2 16681 strain which was labeled with enhanced green fluorescent protein (eGPF). The culture medium consists of minimal essential medium supplemented with 2% of heat-inactivated fetal calf serum, 0.04% gentamycin (50 mg/mL) and 2 mM of L-glutamine. Vero cells, obtained from ECACC, were suspended in culture medium and 25 μL was added to 384-well plates (2500 cells/well), which already contain the antiviral compounds. Typically, these plates contain a 5-fold serial dilution of 9 dilution steps of the test compound at 200 times the final concentration in 100% DMSO (200 nL). […] Finally, each plate contains wells which are assigned as virus controls (containing cells and virus in the absence of compound), cell controls (containing cells in the absence of virus and compound) and medium controls (containing medium in the absence of cells, virus and compounds). To the wells assigned as medium control, 25 μL of culture medium was added instead of Vero cells. Once the cells were added to the plates, the plates were incubated for 30 minutes at room temperature to allow the cells to distribute evenly within the wells. Next, the plates were incubated in a fully humidified incubator (37° C., 5% CO2) until the next day. Then, DENV-2 strain 16681, labeled with eGFP, was added at a multiplicity of infection (MOI) of 0.5. Therefore, 15 μL of virus suspension was added to all the wells containing test compound and to the wells assigned as virus control. In parallel, 15 μL of culture medium was added to the medium and cell controls. Next, the plates were incubated for 3 days in a fully humidified incubator (37° C., 5% CO2). At the day of the read out, the eGFP fluorescence was measured using an automated fluorescence microscope at 488 nm (blue laser). Using an in-house LIMS system, inhibition dose response curves for each compound were calculated and the half maximal effective concentration (EC50) was determined. Therefore, the percent inhibition (I) for every test concentration is calculated using the following formula: I=100*(ST-SCC)/(SVC-SCC), ST, SCC and SVC are the amount of eGFP signal in the test compound, cell control and virus control wells, respectively. The EC50 represents the concentration of a compound at which the virus replication is inhibited with 50%, as measured by a 50% reduction of the eGFP fluorescent intensity compared to the virus control. The EC50 is calculated using linear interpolation (Table 1).

in vitro = conditions: African green monkey
Vero cells = conditions: African green monkey
[1] = Dengue virus, DENV2, Vero, 72 h

Row | SMILES | EC50 (DENV-2 16681 strain) [µM] | CC50 (in vitro) [µM] | CC50 (Vero cells) [µM] | EC50 (DENV-2 16681 strain; [1]) [µM]
1 | COc1cc(NC(C(=O)N2CCc3cc(OC)c(C(F)(F)F)cc32)c2ccc(Cl)cc2OC)cc(OCCO)c1 (single isomer, unassigned) [Compound 11A, 2-(4-chloro-2-methoxyphenyl)-2-((3-(2-hydroxyethoxy)-5-methoxyphenyl)amino)-1-(5-methoxy-6-(trifluoromethyl)indolin-1-yl)ethanone] | 0.33 | > 25 |  | 
2 | COc1cc(NC(C(=O)N2CCc3ccc(OC(F)(F)F)cc32)c2ccc(Cl)cc2)cc(OCCO)c1 (single isomer, unassigned) [Compound 3B, 2-(4-chlorophenyl)-2-((3-(2-hydroxyethoxy)-5-methoxyphenyl)amino)-1-(6-(trifluoromethoxy)indolin-1-yl)ethanone] | 0.59 |  | 12 | 
3 | COc1cc(NC(C(=O)N2CCc3c(C)cc(OC(F)(F)F)cc32)c2ccc(Cl)cc2)cc(OCCO)c1 (single isomer, unassigned) [Compound 9A, 2-(4-chlorophenyl)-2-((3-(2-hydroxyethoxy)-5-methoxy-phenyl)amino)-1-(4-methyl-6-(trifluoromethoxy)indolin-1-yl)ethanone] | 1 | 13 |  | 
4 | COc1cc(NC(C(=O)N2CCc3ccc(C(F)(F)F)cc32)c2ccc(Cl)cc2OC)cc(OCCO)c1 (single isomer, unassigned) [Compound 1A, 2-(4-chloro-2-methoxyphenyl)-2-((3-(2-hydroxyethoxy)-5-methoxyphenyl)amino)-1-(6-(trifluoromethyl)indolin-1-yl)ethanone] | 0.22 | 13 |  | 
5 | COc1cc(NC(C(=O)N2CCc3c(C)cc(C(F)(F)F)cc32)c2ccc(Cl)cc2)cc(OCCO)c1 (single isomer, unassigned) [Compound 10A, 2-(4-chlorophenyl)-2-((3-(2-hydroxyethoxy)-5-methoxy-phenyl)amino)-1-(4-methyl-6-(trifluoromethyl)indolin-1-yl)ethanone] | 1.3 | 11 |  | 
6 | COc1cc(NC(C(=O)N2CCc3cc(OC)c(C(F)(F)F)cc32)c2ccc(Cl)cc2F)cc(OCCO)c1 (single isomer, unassigned) [Compound 8A, 2-(4-chloro-2-fluorophenyl)-2-((3-(2-hydroxyethoxy)-5-methoxyphenyl)amino)-1-(5-methoxy-6-(trifluoromethyl)indolin-1-yl)ethanone] | 0.46 |  | > 25 | 
7 | COc1cc(NC(C(=O)N2CCc3cc(OC)c(C(F)(F)F)cc32)c2ccc(Cl)cc2F)cc(OCCO)c1 (racemic) [Compound 8, 2-(4-chloro-2-fluorophenyl)-2-((3-(2-hydroxyethoxy)-5-methoxyphenyl)amino)-1-(5-methoxy-6-(trifluoromethyl)indolin-1-yl)ethanone] |  | > 25 |  | 0.0044
8 | COc1cc(NC(C(=O)N2CCc3cc(F)c(C(F)(F)F)cc32)c2ccc(Cl)cc2)cc(OCCO)c1 (single isomer, unassigned) [Compound 12B, 2-(4-chlorophenyl)-1-(5-fluoro-6-(trifluoromethyl)indolin-1-yl)-2-((3-(2-hydroxyethoxy)-5-methoxyphenyl)amino)ethanone] | 0.4 |  | 11 | 
9 | COc1cc(NC(C(=O)N2CCc3ccc(OC(F)(F)F)cc32)c2ccc(Cl)cc2F)cc(OCCO)c1 (racemic) [Compound 6, 2-(4-chloro-2-fluorophenyl)-2-((3-(2-hydroxyethoxy)-5-methoxyphenyl)amino)-1-(6-(trifluoromethoxy)indolin-1-yl)ethanone] |  | 14 |  | 0.0062
10 | COc1cc(NC(C(=O)N2CCc3ccc(C(F)(F)F)cc32)c2ccc(Cl)cc2F)cc(OCCO)c1 (racemic) [Compound 2, 2-(4-chloro-2-fluorophenyl)-2-((3-(2-hydroxyethoxy)-5-methoxyphenyl)amino)-1-(6-(trifluoromethyl)indolin-1-yl)ethanone] |  | 12 |  | 0.0089
11 | COc1cc(NC(C(=O)N2CCc3ccc(OC(F)(F)F)cc32)c2ccc(Cl)cc2OC)cc(OCCO)c1 (single isomer, unassigned) [Compound 5B, 2-(4-chloro-2-methoxyphenyl)-2-((3-(2-hydroxyethoxy)-5-methoxyphenyl)amino)-1-(6-(trifluoromethoxy)indolin-1-yl)ethanone] | 0.76 |  | 14 | 
12 | COc1cc(NC(C(=O)N2CCc3cc(OC)c(OC(F)(F)F)cc32)c2ccc(Cl)cc2)cc(OCCO)c1 (single isomer, unassigned) [Compound 13B, 2-(4-chlorophenyl)-2-((3-(2-hydroxyethoxy)-5-methoxyphenyl)amino)-1-(5-methoxy-6-(trifluoromethoxy)indolin-1-yl)ethanone] | 0.28 |  | > 25 | 
13 | COc1cc(NC(C(=O)N2CCc3cc(OC)c(C(F)(F)F)cc32)c2ccc(Cl)cc2)cc(OCCO)c1 (single isomer, unassigned) [Compound 7A, 2-(4-chlorophenyl)-2-((3-(2-hydroxyethoxy)-5-methoxyphenyl)amino)-1-(5-methoxy-6-(trifluoromethyl)indolin-1-yl)ethanone] | 0.79 | 21 |  | 
14 | COc1cc(NC(C(=O)N2CCc3cc(OC)c(C(F)(F)F)cc32)c2ccc(Cl)cc2)cc(OCCO)c1 (racemic) [Compound 7, 2-(4-chlorophenyl)-2-((3-(2-hydroxyethoxy)-5-methoxyphenyl)amino)-1-(5-methoxy-6-(trifluoromethyl)indolin-1-yl)ethanone] |  | 11 |  | 0.0023
15 | COc1cc(NC(C(=O)N2CCc3ccc(C(F)(F)F)cc32)c2ccc(Cl)cc2F)cc(OCCO)c1 (single isomer, unassigned) [Compound 2A, 2-(4-chloro-2-fluorophenyl)-2-((3-(2-hydroxyethoxy)-5-methoxyphenyl)amino)-1-(6-(trifluoromethyl)indolin-1-yl)ethanone] | 0.32 | 18 |  | 
16 | COc1cc(NC(C(=O)N2CCc3ccc(OC(F)(F)F)cc32)c2ccc(Cl)cc2F)cc(OCCO)c1 (single isomer, unassigned) [Compound 6A, 2-(4-chloro-2-fluorophenyl)-2-((3-(2-hydroxyethoxy)-5-methoxyphenyl)amino)-1-(6-(trifluoromethoxy)indolin-1-yl)ethanone] | 0.28 | 17 |  | 
